Source: US20050026836A1, “Composition for the treatment of damaged tissue” (priority 1999, published 2005)

Key:
uPA = uPA (Homo sapiens, UniProt P00749); assay: Proteolytic digestion of growth factors by purified uPA; type: biochemical; set-up: High molecular weight human urokinase from urine, 3000 IU/vial (Calbiochem, 672081); purchased Calbiochem 672081; host or cells: human urine; key: significant (represented as ‘+’); a score from significant (represented as ‘+’) to major (represented as ‘+++’); major (represented as ‘+++’); Reduction of parent growth factor not accompanied by the appearance of degradation products is represented by (+); conditions: 37° C., Western blot
Description: (§9) The extent of proteolysis of the growth factors was assayed by incubating TGF-β2, VEGF, PDGF-BB and KGF-2 with the proteases uPA, plasmin, MMP-3 and MMP-13 in assay buffer (either uPA/plasmin buffer, 50 mM tris-HCl, pH 7.4 or MMP assay buffer, 100 mM Tris, 10 mM NaCl, 10 mM CaCl2, 0.05% (w/v) Brij 35, pH 7.5). […] The growth factors were added to the incubation mixture at a final concentration of 7.9 mg/ml, unless otherwise stated.
(§10) The effects of uPA were determined by incubation at a typical final concentration of 25 μg/ml (1500 U/ml) with each growth factor. The effects of plasmin were determined at a typical final concentration of 0.1 mg/ml by incubation with the individual growth factors in assay buffer. MMP-3 and -13 were incubated at a typical final concentration of 10 nM with the growth factors in assay buffer. […] All incubations were performed in siliconised tubes (Sigma Aldrich, UK).
(§11) All assays were carried out at 37° C. and enzymes were pre-incubated for 15 minutes with or without inhibitor as appropriate, prior to addition of growth factors. After the addition of growth factor, the incubation mixtures were divided into aliquots in siliconised tubes for each time point used. Incubations were carried out over a time course typically of 24 hours, unless otherwise stated. […]

MMP-3 [1] = biological target: T1, MMP-3 (Homo sapiens, UniProt P08254); assay: Proteolytic digestion of growth factors by purified MMP-3; type: biochemical; set-up: key: significant (represented as ‘+’); a score from significant (represented as ‘+’) to major (represented as ‘+++’); major (represented as ‘+++’); Reduction of parent growth factor not accompanied by the appearance of degradation products is represented by (+); conditions: purified MMP-3, 37° C., Western blot
T1 construct: made in house
T1 sequence (P08254 100-272 limits assumed): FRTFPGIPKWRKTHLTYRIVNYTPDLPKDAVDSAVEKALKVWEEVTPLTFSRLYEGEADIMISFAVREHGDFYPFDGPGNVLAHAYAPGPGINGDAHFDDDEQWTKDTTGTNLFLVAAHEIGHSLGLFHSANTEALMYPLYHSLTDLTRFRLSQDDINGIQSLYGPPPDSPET
Description: as §9, §10, §11

Plasmin = biological target: T2, Plasmin (Homo sapiens, UniProt P00747); assay: Proteolytic digestion of growth factors by purified plasmin; type: biochemical; set-up: key: significant (represented as ‘+’); a score from significant (represented as ‘+’) to major (represented as ‘+++’); major (represented as ‘+++’); Reduction of parent growth factor not accompanied by the appearance of degradation products is represented by (+); conditions: 37° C., Western blot
T2 construct: Human plasmin, 2 mg/vial (Quadratech, 810665) was reconstituted to 1 mg/ml in buffer; purchased Quadratech 810665
T2 sequence (P00747 581-810 limits assumed): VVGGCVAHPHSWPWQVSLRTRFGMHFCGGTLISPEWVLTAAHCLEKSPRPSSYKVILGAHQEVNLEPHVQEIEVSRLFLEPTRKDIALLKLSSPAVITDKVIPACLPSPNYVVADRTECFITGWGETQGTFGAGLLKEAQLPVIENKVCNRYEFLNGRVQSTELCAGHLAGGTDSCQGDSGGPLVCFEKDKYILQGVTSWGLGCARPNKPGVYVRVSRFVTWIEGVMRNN
T2 sequence (P00747 97-580 partner limits assumed): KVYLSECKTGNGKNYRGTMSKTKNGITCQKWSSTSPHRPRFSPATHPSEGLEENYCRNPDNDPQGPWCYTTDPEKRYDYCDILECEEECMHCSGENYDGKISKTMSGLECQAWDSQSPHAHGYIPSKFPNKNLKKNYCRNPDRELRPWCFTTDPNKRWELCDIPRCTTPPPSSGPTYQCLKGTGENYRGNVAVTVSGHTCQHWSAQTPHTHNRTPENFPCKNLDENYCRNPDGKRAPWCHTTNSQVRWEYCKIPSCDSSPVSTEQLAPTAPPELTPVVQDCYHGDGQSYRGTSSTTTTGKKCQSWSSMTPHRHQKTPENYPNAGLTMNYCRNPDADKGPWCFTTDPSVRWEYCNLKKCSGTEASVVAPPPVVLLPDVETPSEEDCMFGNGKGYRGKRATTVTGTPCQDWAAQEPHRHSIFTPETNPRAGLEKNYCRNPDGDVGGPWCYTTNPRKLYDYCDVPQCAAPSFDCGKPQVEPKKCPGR
Description: as §9, §10, §11

MMP-13 [2] = biological target: T3, MMP-13 (Homo sapiens, UniProt P45452); assay: Proteolytic digestion of growth factors by purified MMP-13; type: biochemical; set-up: key: significant (represented as ‘+’); a score from significant (represented as ‘+’) to major (represented as ‘+++’); major (represented as ‘+++’); Reduction of parent growth factor not accompanied by the appearance of degradation products is represented by (+); conditions: purified MMP-13, 37° C., Western blot
T3 construct: made in house
Description: as §9, §10, §11

[3] = in vivo; cited from earlier work
MMP-13 [4] = biological target: T3, MMP-13; assay: MMP-13 fluorogenic inhibition assay; type: biochemical; conditions: estimated from IC50; read-out: Calculated Ki(nM) MMP-13
Description: (§1) All enzymes were pre-activated at 37° C. with aminophenylmercuric acetate (APMA) or trypsin before being made up to the final concentrations used in the assay.
(§2) For MMP-1, the assay buffer used was 50 mM Tris, 200 mM NaCl, 5 mM CaCl2, 20 μM ZnCl2, 0.05% (w/v) Brij 35, pH 7.5. […] For MMP-13, the assay buffer used was 50 mM Tris, pH 7.5, 200 mM NaCl, 5 mM CaCl2, […] and 0.02% (w/v) Brij 35.
Assays were carried out in 96-well microfluor plates. All incubations were performed at 37° C. and fluorescence readings determined at 360 nm γex and 450 nm γem.
For the assay, the fluorescence values at time zero were subtracted from those determined at 15 or 20 minutes. The % response was then calculated by comparison to positive controls (enzyme, buffer and substrate in the absence of inhibitor). IC50 values were then determined using FitCurve (Excel Tessella Stats add-in).
(§3) These were estimated using the following equation: IC50=(Ki*[…], where S is the substrate concentration and Km the Michaelis-Menton coefficient. Serine Protease Assays

MMP-3 [5] = biological target: T1, MMP-3; assay: Reduction of MMP-3-catalysed degradation of KGF-2; type: biochemical; conditions: MMP-3 / KGF-2, read-out: Percentage inhibition of proteolysis
[6] = biological target: T4, catalytic domain of human MMP-3 (Homo sapiens, UniProt P08254); assay: MMP-3 fluorogenic inhibition assay; type: biochemical
T4 construct: made in house
T4 sequence (P08254 100-272 limits assumed): as the sequence (P08254 100-272 limits assumed) above
Description: as §1, §2
(§4) MMP-2, MMP-3 and MMP-9 inhibition was assayed by incubating activated catalytic domain of human MMP-2, MMP-3 and MMP-9 at 1 nM in assay buffer with 5 μM substrate Mca-Arg-Pro-Lys-Pro-Tyr-Ala-Nva-Trp-Met-Lys(Dnp)-NH2, and six different concentrations of inhibitor. The incubation was performed at 37° C. for 60 minutes.
(§5) For MMP-2, the final assay concentrations of inhibitors used were 1000, 800, 600, 400, 200 and 100 nM. For MMP-3, the final assay concentrations of inhibitors used were 5, 4, 3, 2, 1 and 0.5 nM. For MMP-9 and MMP-14, the final assay concentrations of inhibitors used were 5, 4, 3, 2, 1 and 0.5 μM.
(§6) All assays were carried out in a black 96-well plate with a final volume of 100 μl in each well. Inhibitors were dissolved in dimethylsulphoxide (DMSO) to 1 mM. Solutions were then serially diluted in buffer to give the final concentrations shown.
as §3

[7] = biological target: T5, catalytic domain human MMP-14 (Homo sapiens, UniProt P50281); assay: MMP-14 fluorogenic inhibition assay; type: biochemical; conditions: read-out: Calculated Ki(nM) MMP-14
T5 construct: made in house
Description: (§7) All enzymes were pre-activated at 37° C. with aminophenylmercuric acetate (APMA) or trypsin before being made up to the final concentrations used in the assay. MMP-1 (30 nM) was activated with 0.93 mM APMA for 20 minutes, MMP-2 (30 nM) was activated with 1.32 mM APMA for 1 hour, MMP-3 (1010 nM) was activated with 1.81 mM APMA for 3 hours or heat activated at 55° C. for three hours, MMP-9 (100 nM) was activated with 2 mM APMA for 2 hours, human MMP-13 (100 nM) was activated with 2 mM APMA for 2 hours, and MMP-14 (900 nM) was activated with 0.9 ng/ml trypsin for 25 minutes, followed by the addition of 4.5 ng/ml trypsin inhibitor.
as §2, with “35. For MMP-14, the assay buffer used was 50 mM Tris, 100 mM NaCl, 10 mM CaCl2, 0.25% (w/v) Brij 35, pH 7.5.” for “35.”
MMP-14 inhibition was assayed by incubating activated catalytic domain human MMP-14 at 1 nM in assay buffer with 10 μM Mca-Pro-Leu-Gly-Leu-Dpa-Ala-Arg-NH2 and six concentrations of inhibitor. The incubation was performed at 37° C. for 60 minutes.
as §5, with “The final assay concentrations of inhibitors used in the MMP-1 assays to determine Ki were 50, 40, 30, 20, 10 and 5 μM. For MMP-2,” for “For MMP-2,”
(§8) All assays were carried out in a black 96-well plate with a final volume of 100 μl in each well. Inhibitors were dissolved in dimethylsulphoxide (DMSO) to 1 mM. […] For MMP-2, MMP-3, MMP-9 and MMP-14, fluorescence was read every 2 minutes at […] and 393 nm γem for 1 hour using a Fluorostar fluorimeter (BMG) with BIOLISE software. For MMP-1 assays, the filters used were 355 nm γex and 440 nm γem; fluorescence was read every 2 minutes for 1 hour. […]

[8] = biological target: T6, catalytic domain human MMP-1 (Homo sapiens, UniProt P03956); assay: MMP-1 fluorogenic inhibition assay; type: biochemical; conditions: * limited by compound solubility; read-out: Calculated Ki(nM) MMP-1
T6 construct: made in house
T6 sequence (P03956 100-269 limits assumed): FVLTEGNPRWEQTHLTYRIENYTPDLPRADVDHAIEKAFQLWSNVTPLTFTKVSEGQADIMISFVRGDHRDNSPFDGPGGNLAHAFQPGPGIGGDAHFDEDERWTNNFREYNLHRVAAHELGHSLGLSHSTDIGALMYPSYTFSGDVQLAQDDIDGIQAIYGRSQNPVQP
Description: as §1, §2
The incubation was performed at 37° C. for 60 minutes.
as §5, §6, §3

[9] = biological target: T7, catalytic domain of human MMP-9 (Homo sapiens, UniProt P14780); assay: MMP-9 fluorogenic inhibition assay; type: biochemical; conditions: read-out: Calculated Ki(nM) MMP-9
T7 sequence (P14780 with tags, fused parts or gaps DEL216-390 limits assumed): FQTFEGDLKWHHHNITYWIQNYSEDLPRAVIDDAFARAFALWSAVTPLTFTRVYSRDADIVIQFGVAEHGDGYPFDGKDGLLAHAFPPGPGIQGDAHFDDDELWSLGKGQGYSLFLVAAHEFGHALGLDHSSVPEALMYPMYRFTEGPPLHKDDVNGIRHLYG
Description: as §7
as §2, with “35. For MMP-14, the assay buffer used was 50 mM Tris, 100 mM NaCl, 10 mM CaCl2, 0.25% (w/v) Brij 35, pH 7.5.” for “35.”
as §4
as §5, with “The final assay concentrations of inhibitors used in the MMP-1 assays to determine Ki were 50, 40, 30, 20, 10 and 5 μM. For MMP-2,” for “For MMP-2,”
as §8, with “well.” for “well. Inhibitors were dissolved in dimethylsulphoxide (DMSO) to 1 mM.”

[10] = biological target: catalytic domain of human MMP-2 (Homo sapiens, UniProt P08253); assay: MMP-2 fluorogenic inhibition assay; type: biochemical; conditions: read-out: Calculated Ki(nM) MMP-2
Sequence of catalytic domain of human MMP-2 (P08253 with tags, fused parts or gaps DEL222-396 limits assumed): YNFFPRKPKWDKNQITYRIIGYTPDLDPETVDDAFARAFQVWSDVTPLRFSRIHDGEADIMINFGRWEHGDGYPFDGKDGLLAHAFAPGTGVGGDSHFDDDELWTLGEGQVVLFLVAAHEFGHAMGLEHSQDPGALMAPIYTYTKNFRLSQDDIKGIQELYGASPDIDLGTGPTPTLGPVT
Description: as §1, §2, §4, §5
All assays were carried out in a black 96-well plate with a final volume of 100 μl in each well. Inhibitors were dissolved in dimethylsulphoxide (DMSO) to 1 mM. Solutions were then serially diluted in buffer to give the final concentrations shown. […]

TGF-β2: "Human recombinant TGF-β2 and KGF-2 were obtained from R&D Systems"; growth factor
Extent of hydrolysis of growth factor by uPA (uPA): + | Extent of hydrolysis of growth factor by MMP-3 (MMP-3 [1]): (+) | Extent of hydrolysis of growth factor by Plasmin (Plasmin): ++ | Extent of hydrolysis of growth factor by MMP-13 (MMP-13 [2]): +

transforming growth factor β3 [TGFβ3]
half life after injection into venous ulcers [3]: approximately 30 minutes

Cc1cc(C2CCN(S(=O)(=O)C(C)(C)C(=O)NO)CC2)ccc1-c1cccc(OCCO)c1 [compound 9470]
Ki (MMP-13 [4]): 0.95 nM | inhibition at 0.01 µM (MMP-3 [5]; inhibitor 0.01 μM): 24.5% | inhibition at 0.1 µM (MMP-3 [5]; inhibitor 0.1 μM): 64.5% | inhibition at 1 µM (MMP-3 [5]; inhibitor 1 μM): 72.2% | inhibition at 10 µM (MMP-3 [5]; inhibitor 10 μM): 91.1% | Selectivity among MMPs (in words) ([6]; from Ki values of Table 3 (MMP-1, -2, -3, -9, -13, -14)): selective dual inhibitor of MMP-3 and MMP-13 | Ki ([6]; read-out: Calculated Ki(nM) MMP-3): 1 nM | Ki [7]: 1710 nM | Ki [8]: 1780 nM | Ki [9]: 406 nM | Ki [10]: 269 nM

PDGF-BB: "human recombinant PDGF-BB" obtained from Sigma; growth factor
Extent of hydrolysis of growth factor by uPA (uPA): ++ | Extent of hydrolysis of growth factor by MMP-3 (MMP-3 [1]): + | Extent of hydrolysis of growth factor by Plasmin (Plasmin): +++ | Extent of hydrolysis of growth factor by MMP-13 (MMP-13 [2]): (+)
